What was measured:
Assay type in all cases: cell-based
human CXCR3A = human CXCR3A (Homo sapiens (Human), UniProt P49682); assay: FLIPR assay (CXCL10-induced calcium signal); settings: CHO-K1 cells expressing human CXCR3A coupled to Galpha(16); CXCL10 agonist 20 nM; mean values
Excerpt: (§1) In the case where IC50 values have been determined several times for the same compound, mean values are given.

hERG K channel = hERG K channel (Homo sapiens (Human), UniProt Q12809); assay: hERG Q-Patch assay; settings: CHO cells expressing hERG, K+ tail current 3 min after application, mean of two or three experiments
Sequence of hERG K channel (Q12809 whole entry): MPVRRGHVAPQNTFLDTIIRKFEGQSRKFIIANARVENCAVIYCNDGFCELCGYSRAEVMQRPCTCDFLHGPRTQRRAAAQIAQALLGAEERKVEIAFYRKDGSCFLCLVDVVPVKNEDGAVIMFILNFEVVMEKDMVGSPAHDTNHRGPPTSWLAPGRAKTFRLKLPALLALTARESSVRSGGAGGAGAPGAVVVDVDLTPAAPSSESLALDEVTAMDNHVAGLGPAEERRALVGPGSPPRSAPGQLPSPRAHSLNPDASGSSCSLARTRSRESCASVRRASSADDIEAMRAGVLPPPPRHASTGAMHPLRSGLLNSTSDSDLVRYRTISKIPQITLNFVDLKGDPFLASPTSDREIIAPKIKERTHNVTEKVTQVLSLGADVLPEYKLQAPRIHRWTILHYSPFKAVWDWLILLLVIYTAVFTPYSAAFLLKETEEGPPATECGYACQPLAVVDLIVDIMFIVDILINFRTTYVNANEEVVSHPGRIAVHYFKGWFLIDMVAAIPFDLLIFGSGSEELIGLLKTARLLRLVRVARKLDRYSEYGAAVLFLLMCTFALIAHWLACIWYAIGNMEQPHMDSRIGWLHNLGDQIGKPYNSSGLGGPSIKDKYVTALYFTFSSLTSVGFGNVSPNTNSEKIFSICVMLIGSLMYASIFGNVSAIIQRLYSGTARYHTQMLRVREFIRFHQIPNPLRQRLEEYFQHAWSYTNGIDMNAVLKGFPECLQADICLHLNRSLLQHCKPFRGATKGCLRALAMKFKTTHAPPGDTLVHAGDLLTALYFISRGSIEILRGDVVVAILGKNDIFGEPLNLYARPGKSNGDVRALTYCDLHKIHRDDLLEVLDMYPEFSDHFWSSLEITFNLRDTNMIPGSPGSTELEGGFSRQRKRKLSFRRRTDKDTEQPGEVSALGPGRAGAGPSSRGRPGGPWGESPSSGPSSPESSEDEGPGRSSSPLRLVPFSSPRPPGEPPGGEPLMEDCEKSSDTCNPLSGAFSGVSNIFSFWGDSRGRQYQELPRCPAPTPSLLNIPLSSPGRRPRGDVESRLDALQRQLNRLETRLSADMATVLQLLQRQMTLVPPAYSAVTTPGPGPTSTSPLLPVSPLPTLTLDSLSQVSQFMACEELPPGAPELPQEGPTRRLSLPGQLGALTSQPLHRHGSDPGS
Description: Compounds are evaluated for block of the hERG K channel using CHO cells stably expressing the hERG gene (accession number U04270, bSys, Witterswil, Switzerland) and the QPatch robotic platform (Sophion, Ballerup, Denmark) in single-cell mode at room temperature. Cells are grown in culture flasks at 37° C. in 5% CO2, in culture medium (Ham's F-12 Nutrient Mixture, Invitrogen 21765-029) supplemented with 9% (v/v) fetal calf serum, 0.9% Penicillin/Streptomycin (10,000 U/mL, Invitrogen 15140148), 100 μg/mL Hygromycin B (Invitrogen 10687010). When the cells are ˜80% confluent (every 2-3 days), they are either split for further culture or used for electrophysiology. For further culture, cells are detached with 0.25% Trypsin EDTA solution (Invitrogen 25200-056) and a fraction of the cells (10-30%) is reseeded in culture medium. For electrophysiology, on the experimental day, cells are detached with 0.25% Trypsin EDTA solution and all cells are suspended in suspension medium (293 SFM II, Invitrogen 11686-029) supplemented with 20 mM HEPES and 0.04 mg/mL Trypsin inhibitor. Cells are kept in suspension medium at 32-35° C. in the QPatch robot until use, at which time aliquots are transferred to the extracellular solution (in mM: NaCl 150; KCl 4; CaCl2 1.2; MgCl2 1; HEPES 10; pH 7.4 with NaOH) containing 0.3% v/v DMSO and applied to the test plates. K^+ currents are measured with the patch-voltage-clamp technique in the whole-cell configuration with the internal solution (in mM: KCl, 140; NaCl, 10; MgCl2, 1; HEPES, 10: EGTA, 5; pH=7.2 with KOH). Currents are low-pass filtered using the internal Bessel filter of the QPatch robot with a cut-off frequency of 2 kHz and are digitized at 10 kHz. K^+ tail currents are produced from a holding voltage of −80 mV by a 500-ms depolarization to +20 mV followed by a 500-ms repolarization to −40 mV; tail current amplitudes are measured at the end of the repolarization to −40 mV. The pulse pattern is repeated every 10 sec during the experiment, baseline K^+ current is measured after 3 min in extracellular solution, test-solution containing compound is then applied, and K^+ current in presence of compound is measured 3 minutes after application to the cells. The respective test-solution is prepared by (1) dissolving the test-compound in pure DMSO, (2) diluting this DMSO solution in extracellular solution, and (3) adding further DMSO, such that the final test-solution has a concentration of either 300 nM or 3000 nM of the test-compound and contains 0.3% v/v DMSO. Compound effects are quantified as % block by dividing the current in presence of compound by the baseline current; two or three experiments are performed for each compound and the final value represents the mean of the results of each experiment.

CXCR3 = CXCR3 (Homo sapiens (Human), UniProt P49682); assay: Receptor internalization assay in human whole blood (CXCR3 surface expression on CD4 positive cells, CXCL10); settings: final CXCL10 9 nM, 30 min at 37° C., mean values
Sequence of CXCR3 (P49682 whole entry): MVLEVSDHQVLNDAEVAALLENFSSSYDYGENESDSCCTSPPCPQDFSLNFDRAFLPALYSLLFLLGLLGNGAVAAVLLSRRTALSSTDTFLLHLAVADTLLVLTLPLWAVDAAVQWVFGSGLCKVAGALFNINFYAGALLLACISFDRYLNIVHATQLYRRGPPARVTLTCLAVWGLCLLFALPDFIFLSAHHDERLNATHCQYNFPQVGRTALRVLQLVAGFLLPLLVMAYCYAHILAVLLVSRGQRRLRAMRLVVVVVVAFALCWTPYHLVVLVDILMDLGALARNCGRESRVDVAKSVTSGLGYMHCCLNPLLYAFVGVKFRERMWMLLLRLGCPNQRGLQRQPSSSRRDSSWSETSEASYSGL
Description: Diluted compounds are then mixed with an equal volume of CXCL10 (Peprotech) diluted in PBS. Anticoagulated venous human whole blood is added to the mixture, which is then incubated in a CO2 incubator at 37° C. to allow for ligand mediated receptor internalization (final CXCL10 concentration is 9 nM). After 30 min, the blood is mixed with fluorescently labeled CXCR3 and CD4 specific antibodies (Becton Dickinson) and incubated on ice for 10 minutes. Samples are then mixed with BD FACS Lysing Solution (Becton Dickinson) in order to eliminate red blood cells. After washing the cells with PBS containing 0.5% BSA, the samples are then analyzed in a flow cytometer (FACS Canto II, Becton Dickinson). For data analysis using FACSDiva software (Becton Dickinson), the mean fluorescence corresponding to CXCR3 cell surface expression was determined on CD4 positive cells. The program GraphPad Prism or similar software is used to fit the data to a single site dose response curve and to calculate IC50 values.
as §1

Sequence of human CXCR3A (P49682 whole entry): as above

| SMILES | IC50 (human CXCR3A) | IC50 (CXCR3) | % block (hERG K channel; concentration 300 nM) | % block (hERG K channel; concentration 3000 nM) |
| --- | --- | --- | --- | --- |
| CCOc1ncc(-c2nc(C(F)(F)F)sc2N2CCN(C(=O)Cn3nc(C)nc3C)[C@H](CO)C2)cn1 [Example 7, 2-(3,5-Dimethyl-[1,2,4]triazol-1-yl)-1-{(S)-4-[4-(2-ethoxy-pyrimidin-5-yl)-2-trifluoromethyl-thiazol-5-yl]-2-hydroxymethyl-piperazin-1-yl}-ethanone] | 3.1 nM | 2270 nM | 24% | 45% |
| CC(C)(C)c1ncn(CC(=O)N2CCN(c3sc(C(F)(F)F)nc3-c3cnc(C(F)(F)F)nc3)C[C@H]2CCO)n1 [Example 30, 2-(3-tert-Butyl-[1,2,4]triazol-1-yl)-1-{(R)-2-(2-hydroxy-ethyl)-4-[2-trifluoromethyl-4-(2-trifluoromethyl-pyrimidin-5-yl)-thiazol-5-yl]-piperazin-1-yl}-ethanone] | 4.4 nM | 170 nM | −2% | 25% |
| O=C(Cn1cnc(C2CC2)n1)N1CCN(c2sc(C(F)(F)F)nc2-c2cnc(C(F)(F)F)nc2)C[C@H]1CCO [Example 31, 2-(3-Cyclopropyl-[1,2,4]triazol-1-yl)-1-{(R)-2-(2-hydroxy-ethyl)-4-[2-trifluoromethyl-4-(2-trifluoromethyl-pyrimidin-5-yl)-thiazol-5-yl]-piperazin-1-yl}-ethanone] | 4.4 nM | 73.8 nM | 2% | 23% |
| COCc1ncn(CC(=O)N2CCN(c3sc(C(F)(F)F)nc3-c3cnc(C(F)(F)F)nc3)C[C@H]2CCO)n1 [Example 37, 1-{(R)-2-(2-Hydroxy-ethyl)-4-[2-trifluoromethyl-4-(2-trifluoromethyl-pyrimidin-5-yl)-thiazol-5-yl]-piperazin-1-yl}-2-(3-methoxymethyl-[1,2,4]triazol-1-yl)-ethanone] | 5.7 nM | 393 nM | 4% | 9% |
| CCc1ccn(CC(=O)N2CCN(c3sc(C(F)(F)F)nc3-c3cnc(C(F)(F)F)nc3)C[C@H]2CCO)n1 [Example 40, 2-(3-Ethyl-pyrazol-1-yl)-1-{(R)-2-(2-hydroxy-ethyl)-4-[2-trifluoromethyl-4-(2-trifluoromethyl-pyrimidin-5-yl)-thiazol-5-yl]-piperazin-1-yl}-ethanone] | 1.6 nM | 32.7 nM | 5% | 47% |
| Cc1ncnn1CC(=O)N1CCN(c2sc(C(F)(F)F)nc2-c2cnc(C(F)(F)F)nc2)C[C@H]1CCO [Example 36, 1-{(R)-2-(2-Hydroxy-ethyl)-4-[2-trifluoromethyl-4-(2-trifluoromethyl-pyrimidin-5-yl)-thiazol-5-yl]-piperazin-1-yl}-2-(5-methyl-[1,2,4]triazol-1-yl)-ethanone] | 8 nM | 451 nM | 10% | 19% |
| COc1ccc2c(ccn2CC(=O)N2CCN(c3sc(C(F)(F)F)nc3-c3cnc(C(F)(F)F)nc3)C[C@@H]2CO)c1 [Example 15, 1-{(R)-2-Hydroxymethyl-4-[2-trifluoromethyl-4-(2-trifluoromethyl-pyrimidin-5-yl)-thiazol-5-yl]-piperazin-1-yl}-2-(5-methoxy-indol-1-yl)-ethanone] | 2.3 nM | 1660 nM | 8% | 35% |
| O=C(Cn1cnc(C2CCC2)n1)N1CCN(c2sc(C(F)(F)F)nc2-c2cnc(C(F)(F)F)nc2)C[C@H]1CCO [Example 29, 2-(3-Cyclobutyl-[1,2,4]triazol-1-yl)-1-{(R)-2-(2-hydroxy-ethyl)-4-[2-trifluoromethyl-4-(2-trifluoromethyl-pyrimidin-5-yl)-thiazol-5-yl]-piperazin-1-yl}-ethanone] | 5.5 nM | 157 nM | 4% | 38% |
| Cc1nc(C)n(CC(=O)N2CCN(c3sc(C(F)(F)F)nc3-c3cnc(C(F)(F)F)nc3)C[C@@H]2CO)n1 [Example 12, 2-(3,5-Dimethyl-[1,2,4]triazol-1-yl)-1-{(R)-2-hydroxymethyl-4-[2-trifluoromethyl-4-(2-trifluoromethyl-pyrimidin-5-yl)-thiazol-5-yl]-piperazin-1-yl}-ethanone] | 6.9 nM | 324 nM | 1% | 3% |

More lines, in order of falling IC50 (human CXCR3A), values ahead:

| IC50 (human CXCR3A) | IC50 (CXCR3) | SMILES | % block (hERG K channel; concentration 300 nM) | % block (hERG K channel; concentration 3000 nM) |
| --- | --- | --- | --- | --- |
| 1.6 nM | 105 nM | Cc1ccn(CC(=O)N2CCN(c3sc(C(F)(F)F)nc3-c3cnc(C(F)(F)F)nc3)C[C@@H]2CO)n1 [Example 22, 1-{(R)-2-Hydroxymethyl-4-[2-trifluoromethyl-4-(2-trifluoromethyl-pyrimidin-5-yl)-thiazol-5-yl]-piperazin-1-yl}-2-(3-methyl-pyrazol-1-yl)-ethanone] | 4% | 15% |
| 1 nM | 46.3 nM | Cc1ccn(CC(=O)N2CCN(c3sc(C(F)(F)F)nc3-c3cnc(C(F)(F)F)nc3)C[C@H]2CCO)n1 [Example 39, 1-{(R)-2-(2-Hydroxy-ethyl)-4-[2-trifluoromethyl-4-(2-trifluoromethyl-pyrimidin-5-yl)-thiazol-5-yl]-piperazin-1-yl}-2-(3-methyl-pyrazol-1-yl)-ethanone] | 1% | 32% |
| 0.45 nM | 30.2 nM | O=C(Cn1ccc(C2CC2)n1)N1CCN(c2sc(C(F)(F)F)nc2-c2cnc(C(F)(F)F)nc2)C[C@H]1CCO [Example 41, 2-(3-Cyclopropyl-pyrazol-1-yl)-1-{(R)-2-(2-hydroxy-ethyl)-4-[2-trifluoromethyl-4-(2-trifluoromethyl-pyrimidin-5-yl)-thiazol-5-yl]-piperazin-1-yl}-ethanone] | 12% | 60% |
| 0.38 nM | 76 nM | O=C(Cn1ccc(C2CC2)n1)N1CCN(c2sc(C(F)(F)F)nc2-c2cnc(C(F)(F)F)nc2)C[C@H]1CO [Example 44, 2-(3-Cyclopropyl-pyrazol-1-yl)-1-{(S)-2-hydroxymethyl-4-[2-trifluoromethyl-4-(2-trifluoromethyl-pyrimidin-5-yl)-thiazol-5-yl]-piperazin-1-yl}-ethanone] | 5% | 34% |
